According to patent publication US4946941A, “Novel glycopeptide antibiotics” (Shionogi & Co., Ltd., priority 1986, dated 1990):
In brackets after ≈: the same amount, converted by molar mass.

Experiments:
[1] = Solubility (physicochemical property)
[2] = test system: Staphylococcus aureus SR1626 (methicillin resistant); test: In vitro antibacterial activity, agar dilution method (MIC); type: cell-based; conditions: 37° C., 18-20 hrs
Procedure: (§1) In vitro antibacterial activity was determined by the agar dilution method as described below.
(§2) One loopful of each test bacterium on a slant was inoculated into 1 ml of a growth medium (Trypto Soy Broth, Eiken Chemical Co.) and incubated at 37° C. for 18-20 hours. For the growth of Streptococci, Mueller-Hinton broth (Difco) supplemented with 3%(V/V) horse serum was employed. A hundred-fold dilution of the culture is used as an inoculum suspension of the bacterium.
(§3) The sample (9-10 mg) was weighed and dissolved in distilled water at a concentration of 2 mg/ml.
(§4) A sample solution was subjected to serial two fold dilutions with sterile water (2000-0.25 μg/ml). To sterile plastic petri dishes (9 cm in diameter) was poured 0.5 ml-aliquot of sample solutions, which was mixed with 9.5 ml of an agar medium (Sensitivity Test Agar, "Nissui"). For Streptococci, horse serum was supplied at 0.5%(V/V).
(§5) One loopful (1.0 μl) of the inoculum suspension was placed on the surface of the agar plates prepared as noted above. The bacterial growth was examined visually after overnight incubation (18-20 hrs) at 37° C.

[3] = test system: Staphylococcus aureus 3131 (methicillin resistant); test: as above; type: cell-based; conditions: 37° C., 18-20 hrs
Procedure: as §1, §2, §3, §4, §5

[4] = test system: Streptococcus pneumoniae Type I; test: as above; type: cell-based; conditions: agar dilution with 0.5% horse serum, 37° C., 18-20 hrs
Procedure: as §1, §2, §3, §4, §5

[5] = test system: Micrococcus luteus ATCC 9341; test: as above; type: cell-based; conditions: 37° C., 18-20 hrs
Procedure: as §1, §2, §3, §4, §5

[6] = test system: Staphylococcus aureus SR14 (penicillin resistant); test: as above; type: cell-based; conditions: 37° C., 18-20 hrs
Procedure: as §1, §2, §3, §4, §5

[7] = test system: Staphylococcus aureus SMITH; test: as above; type: cell-based; conditions: 37° C., 18-20 hrs
Procedure: as §1, §2, §3, §4, §5

[8] = test system: Staphylococcus aureus FDA 209F JC-1; test: as above; type: cell-based; conditions: 37° C., 18-20 hrs
Procedure: as §1, §2, §3, §4, §5

[9] = test system: Streptococcus agalactica SR1247; test: as above; type: cell-based; conditions: agar dilution with 0.5% horse serum, 37° C., 18-20 hrs
Procedure: as §1, §2, §3, §4, §5

[10] = test system: Streptococcus faecalis SR1004; test: as above; type: cell-based; conditions: agar dilution with 0.5% horse serum, 37° C., 18-20 hrs
Procedure: as §1, §2, §3, §4, §5

[11] = test system: Staphylococcus aureus ATCC 25923; test: as above; type: cell-based; conditions: 37° C., 18-20 hrs
Procedure: as §1, §2, §3, §4, §5

[12] = test system: Streptococcus pyogenes C-203; test: as above; type: cell-based; conditions: agar dilution with 0.5% horse serum, 37° C., 18-20 hrs
Procedure: as §1, §2, §3, §4, §5

[13] = test system: Staphylococcus aureus SR3626 (methicillin resistant); test: as above; type: cell-based; conditions: 37° C., 18-20 hrs
Procedure: as §1, §2, §3, §4, §5

[14] = test system: Streptococcus pneumoniae Type I; test: Protective test in mice (in vivo antibacterial activity); conditions: Streptococcus pneumoniae Type I i.p. challenge, Slc-ICR female mice; s.c. 1 and 5 hours post-infection; survival on day 7
Procedure: (§6) Method: Test bacterium is intraperitoneally challenged to Slc-ICR female mice (8 mice/group), to which PA-42867-A and des-(4-epi-vancosaminyl) PA-42867-A (serial two fold dilution) are subcutaneously administered 1 and 5 hours post-infection.
(§7) Result: ED50 (50% effective dose) is calculated from survival rate of mice on day 7 after the infection.

[15] = test system: Staphylococcus aureus SMITH; test: as above; conditions: Staphylococcus aureus SMITH i.p. challenge, Slc-ICR female mice; s.c. 1 and 5 hours post-infection; survival on day 7
Procedure: as §6, §7

[16] = test system: Streptoccus pyogenes C-302; test: as above; conditions: Streptoccus pyogenes C-302 i.p. challenge, Slc-ICR female mice; s.c. 1 and 5 hours post-infection; survival on day 7
Procedure: as §6, §7

[17] = test system: Staphylococcus aureus SR2030 (methicillin-resistant); test: as above; conditions: Staphylococcus aureus SR2030 (methicillin-resistant) i.p. challenge, Slc-ICR female mice; s.c. 1 and 5 hours post-infection; survival on day 7
Procedure: as §6, §7

[18] = in ether, benzene, chloroform and ethyl acetate

| Solubility ([1]; in alcohol) | Solubility [1, 18] | Solubility ([1]; in water and dimethylsulfoxide) | MIC [2] | MIC [3] | MIC [4] | MIC [5] | MIC [6] | MIC [7] | MIC [8] | MIC [9] | MIC [10] | MIC [11] | MIC [12] | MIC [13] | Structure (SMILES) | ED50 (50% effective dose) [14] | ED50 (50% effective dose) [15] | ED50 (50% effective dose) [16] | ED50 (50% effective dose) [17] |
| --- | --- | --- | --- | --- | --- | --- | --- | --- | --- | --- | --- | --- | --- | --- | --- | --- | --- | --- | --- |
| Slightly soluble | Insoluble | Soluble | 1.56 mg/L (≈ 1.01 µM) | 1.56 mg/L (≈ 1.01 µM) | 0.78 mg/L (≈ 0.505 µM) | 1.56 mg/L (≈ 1.01 µM) | 1.56 mg/L (≈ 1.01 µM) | 3.13 mg/L (≈ 2.03 µM) | 1.56 mg/L (≈ 1.01 µM) | 0.78 mg/L (≈ 0.505 µM) | 3.13 mg/L (≈ 2.03 µM) | 3.13 mg/L (≈ 2.03 µM) | 0.78 mg/L (≈ 0.505 µM) | 1.56 mg/L (≈ 1.01 µM) | CN[C@H](CC(C)C)C(=O)N[C@H]1C(=O)N[C@@H](CC(N)=O)C(=O)N[C@H]2C(=O)N[C@H]3C(=O)N[C@H](C(=O)N[C@H](C(=O)O)c4cc(O)cc(O)c4-c4cc3ccc4O)[C@H](O[C@H]3C[C@](C)(N)[C@@H](O)[C@H](C)O3)c3ccc(c(Cl)c3)Oc3cc2cc(c3O[C@@H]2O[C@H](CO)[C@@H](O)[C@H](O)[C@H]2O[C@H]2C[C@H](O)[C@@H](O)[C@H](C)O2)Oc2ccc(cc2)[C@H]1O [Compd. B, PA-42867-B] | – | – | – | – |
| – | – | – | 0.78 mg/L (≈ 0.623 µM) | 0.78 mg/L (≈ 0.623 µM) | 0.78 mg/L (≈ 0.623 µM) | 0.78 mg/L (≈ 0.623 µM) | 0.78 mg/L (≈ 0.623 µM) | 0.78 mg/L (≈ 0.623 µM) | 0.78 mg/L (≈ 0.623 µM) | 0.78 mg/L (≈ 0.623 µM) | 0.78 mg/L (≈ 0.623 µM) | 1.56 mg/L (≈ 1.25 µM) | 0.39 mg/L (≈ 0.311 µM) | 0.78 mg/L (≈ 0.623 µM) | CN[C@H](CC(C)C)C(=O)N[C@H]1C(=O)N[C@@H](CC(N)=O)C(=O)N[C@H]2C(=O)N[C@H]3C(=O)N[C@H](C(=O)N[C@H](C(=O)O)c4cc(O)cc(O)c4-c4cc3ccc4O)[C@H](O[C@H]3C[C@](C)(N)[C@@H](O)[C@H](C)O3)c3ccc(c(Cl)c3)Oc3cc2cc(c3O)Oc2ccc(cc2)[C@H]1O [Compd. D, des-(4-epi-vancosaminyl-O-glucosyl)-PA-42867-A] | – | – | – | – |
| Slightly soluble | Insoluble | Soluble | 0.78 mg/L (≈ 0.501 µM) | 0.78 mg/L (≈ 0.501 µM) | 0.39 mg/L (≈ 0.25 µM) | 0.39 mg/L (≈ 0.25 µM) | 0.78 mg/L (≈ 0.501 µM) | 0.78 mg/L (≈ 0.501 µM) | 0.39 mg/L (≈ 0.25 µM) | 0.39 mg/L (≈ 0.25 µM) | 1.56 mg/L (≈ 1 µM) | 0.78 mg/L (≈ 0.501 µM) | 0.39 mg/L (≈ 0.25 µM) | 0.78 mg/L (≈ 0.501 µM) | CN[C@H](CC(C)C)C(=O)N[C@H]1C(=O)N[C@@H](CC(N)=O)C(=O)N[C@H]2C(=O)N[C@H]3C(=O)N[C@H](C(=O)N[C@H](C(=O)O)c4cc(O)cc(O)c4-c4cc3ccc4O)[C@H](O[C@H]3C[C@](C)(N)[C@@H](O)[C@H](C)O3)c3ccc(c(Cl)c3)Oc3cc2cc(c3O[C@@H]2O[C@H](CO)[C@@H](O)[C@H](O)[C@H]2O[C@H]2C[C@](C)(N)[C@@H](O)[C@H](C)O2)Oc2ccc(cc2)[C@H]1O [Compd. A, PA-42867-A] | 0.90 mg/kg/dose | 0.62 mg/kg/dose | 0.64 mg/kg/dose | 2.31 mg/kg/dose |
| – | – | – | 1.56 mg/L (≈ 1.1 µM) | 1.56 mg/L (≈ 1.1 µM) | 0.78 mg/L (≈ 0.551 µM) | 0.78 mg/L (≈ 0.551 µM) | 1.56 mg/L (≈ 1.1 µM) | 1.56 mg/L (≈ 1.1 µM) | 0.78 mg/L (≈ 0.551 µM) | 0.78 mg/L (≈ 0.551 µM) | 1.56 mg/L (≈ 1.1 µM) | 1.56 mg/L (≈ 1.1 µM) | 0.78 mg/L (≈ 0.551 µM) | 1.56 mg/L (≈ 1.1 µM) | CN[C@H](CC(C)C)C(=O)N[C@H]1C(=O)N[C@@H](CC(N)=O)C(=O)N[C@H]2C(=O)N[C@H]3C(=O)N[C@H](C(=O)N[C@H](C(=O)O)c4cc(O)cc(O)c4-c4cc3ccc4O)[C@H](O[C@H]3C[C@](C)(N)[C@@H](O)[C@H](C)O3)c3ccc(c(Cl)c3)Oc3cc2cc(c3O[C@@H]2O[C@H](CO)[C@@H](O)[C@H](O)[C@H]2O)Oc2ccc(cc2)[C@H]1O [Compd. C, des-(4-epi-vancosaminyl)-PA-42867-A] | 2.11 mg/kg/dose | 1.47 mg/kg/dose | 1.43 mg/kg/dose | 2.91 mg/kg/dose |
